Results published in ChEMBL document CHEMBL1156141, “Synthesis and biological evaluation of novel thiocolchicine-podophyllotoxin conjugates” (Eur J Med Chem, 2010).
Activity calls are given as the source filed them. The rule behind the calls is not given here.

How the values were obtained:
A549 [1] = details: Homo sapiens, at 0.5 µM
Description: Inhibition of microtubule in human A549 cells assessed as roundish cells at 0.5 uM after 24 hrs by immunofluorescence analysis

A549 [2] = test: Inhibition of microtubule in human A549 cells assessed as roundish cells at 0.5 uM after 1 hr by immunofluorescence analysis; format: cell-based
A549 [3] = details: Homo sapiens, at 0.5 µM; remark: listed apart in the source
Description: Inhibition of microtubule in human A549 cells assessed as network disappearane at 0.5 uM after 1 hr by immunofluorescence analysis

A549 [4] = test: Inhibition of microtubule in human A549 cells assessed as microtubule organization at 0.5 uM after 1 hr by immunofluorescence analysis; format: cell-based
[5] = Chemical stability assessed as disulfide cleavage after 3 hrs by ESI-MS in presence of L-glutathione; format: physicochemical

In the case of COc1cc2c(c(OC)c1OC)-c1ccc(SC)c(=O)cc1[C@@H](NC(=O)C(N)CSSCC(N)C(=O)N[C@H]1CCc3cc(OC)c(OC)c(OC)c3-c3ccc(SC)c(=O)cc31)CC2 (stereo partly specified), the inhibition (A549 [1]) is reported as “Active” and the inhibition (A549 [2]) is reported as 50%.

With COc1cc([C@@H]2c3cc4c(cc3[C@H](OC(=O)CCCSSCCCC(=O)N[C@H]3CCc5cc(OC)c(OC)c(OC)c5-c5ccc(SC)c(=O)cc53)[C@H]3COC(=O)[C@H]23)OCO4)cc(OC)c1OC the inhibition (A549 [1]) was “Active” and the inhibition (A549 [3]) was “Active”.

In the case of COc1cc2c(c(OC)c1OC)-c1ccc(SC)c(=O)cc1[C@@H](NC(=O)C(N)CCCCC(N)C(=O)N[C@H]1CCc3cc(OC)c(OC)c(OC)c3-c3ccc(SC)c(=O)cc31)CC2 (stereo partly specified), the inhibition (A549 [4]) is reported as “inactive” and the inhibition (A549 [1]) is reported as “Active”.

For COc1cc2c(c(OC)c1OC)-c1ccc(SC)c(=O)cc1[C@@H](NC(=O)CSSCC(=O)N[C@H]1CCc3cc(OC)c(OC)c(OC)c3-c3ccc(SC)c(=O)cc31)CC2, the Stability [5] was “Unstable”, the inhibition (A549 [1]) was “Active” and the inhibition (A549 [3]) was “Active”.

For COc1cc([C@@H]2c3cc4c(cc3[C@H](O)[C@H]3COC(=O)[C@H]23)OCO4)cc(OC)c1OC, the inhibition (A549 [1]) was “Active” and the inhibition (A549 [3]) was “Active”.

For COc1cc([C@@H]2c3cc4c(cc3[C@H](OC(=O)CCCCC(=O)O[C@H]3c5cc6c(cc5[C@@H](c5cc(OC)c(OC)c(OC)c5)[C@H]5C(=O)OC[C@@H]53)OCO6)[C@H]3COC(=O)[C@H]23)OCO4)cc(OC)c1OC, the inhibition (A549 [4]) was “inactive” and the inhibition (A549 [1]) was “Active”.

In the case of COc1cc2c(c(OC)c1OC)-c1ccc(SC)c(=O)cc1[C@@H](NC(=O)CCSSCCC(=O)N[C@H]1CCc3cc(OC)c(OC)c(OC)c3-c3ccc(SC)c(=O)cc31)CC2, the inhibition (A549 [1]) is reported as “Active” and the inhibition (A549 [3]) is reported as “Active”.

For COc1cc2c(c(OC)c1OC)-c1ccc(SC)c(=O)cc1[C@@H](NC(=O)CCCCC(=O)N[C@H]1CCc3cc(OC)c(OC)c(OC)c3-c3ccc(SC)c(=O)cc31)CC2, the inhibition (A549 [1]) was “Active” and the inhibition (A549 [2]) was 50%.

In the case of COc1cc([C@@H]2c3cc4c(cc3[C@H](OC(=O)C(N)CSSCC(N)C(=O)O[C@H]3c5cc6c(cc5[C@@H](c5cc(OC)c(OC)c(OC)c5)[C@H]5C(=O)OC[C@@H]53)OCO6)[C@H]3COC(=O)[C@H]23)OCO4)cc(OC)c1OC (stereo partly specified), the inhibition (A549 [1]) is reported as “Active” and the inhibition (A549 [3]) is reported as “Active”.

With COc1cc([C@@H]2c3cc4c(cc3[C@H](OC(=O)CSSCC(=O)O[C@H]3c5cc6c(cc5[C@@H](c5cc(OC)c(OC)c(OC)c5)[C@H]5C(=O)OC[C@@H]53)OCO6)[C@H]3COC(=O)[C@H]23)OCO4)cc(OC)c1OC the inhibition (A549 [1]) was “Active” and the inhibition (A549 [2]) was 50%.
